Assay results as given in US20250092383A1, “COMPOUNDS AND METHODS FOR FBXO22-MEDIATED PROTEIN DEGRADATION” (Northwestern University, priority 2023, published 2025).

Biological target: T1, CUTA (Homo sapiens, UniProt O60888)
T1 construct: endogenous in cells; host or cells: A549 parental and FBXO22 knockout
T1 sequence (O60888 33-179): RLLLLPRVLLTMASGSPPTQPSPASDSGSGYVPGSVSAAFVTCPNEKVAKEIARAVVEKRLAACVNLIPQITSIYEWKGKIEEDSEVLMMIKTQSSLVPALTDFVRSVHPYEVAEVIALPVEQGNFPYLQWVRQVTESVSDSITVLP
Assay: MS-based global proteomic analysis in A549 parental and FBXO22 knockout cells (CUTA)
Format: cell-based
Conditions: 2 μM, 24 hours
Description: As an F-box protein, FBXO22 is a pivotal player in the context of tumor progression. FBXO22 has many oncogenic functions, including propelling the ubiquitination and subsequent degradation of a diverse spectrum of substrates, such as histone lysine demethylase 4 subfamily KDM4A/B, methylated p53, p21, PTEN, KLF4, and LKB1. […] To establish the role of endogenous FBXO22 in facilitating 22-SLF-induced FKBP12 degradation, FBXO22 knockout was used in a panel of cancer cell lines, including A549 (lung cancer), MDA-MB-231 (breast cancer), and PC3 (prostate cancer). The efficacy of FBXO22 knockout was verified through both genomic PCR and global proteomic analysis (FIG. 8b,c). […] Furthermore, mass spectrometry (MS)-based global proteomic analysis was conducted on A549 parental and FBXO22 knockout cells, following the treatment with 2 μM 22-SLF for 24 hours. […] To further substantiate the engagement of FBXO22 by the electrophilic portion of 22-SLF, a biotin-conjugated probe known as 22-biotin (FIG. 2f) was synthesized. This probe was then immobilized onto streptavidin-coated beads, which were subsequently subjected to interaction with lysates from HEK293T cells expressing HA-tagged FBXO22.

CCC(C)(C)C(=O)C(=O)N1CCCC[C@H]1C(=O)O[C@H](CCc1ccc(OC)c(OC)c1)c1cccc(OCC(=O)NCCCOCCOCCOCCCN(C(=O)CCl)C(C(=O)NCc2ccccc2)c2nc3ccccc3s2)c1 (stereo partly shown) [22-SLF]
CUTA protein reduction in global proteomics: observed to undergo reduction upon 22-SLF treatment in A549 parental cells, but not in the FBXO22 knockout setting
